# The supplement of paper PMC11208160
# Experiment: recombinant UMI read abundance after kanamycin selection (control-corrected) (log10(CPM+1)); higher = more efficient recombination; extreme values may be limits of the assay; sequences stand for … in AGTGCAGAGAAAATCGGCCAGTTTTCTCTGCCTGCAGTCCGCATGCCGTGGGACCCCTTGGGTTCTAACCTGTTGCCTAGATTTATGCAGCGGACTGCCTTTCTCCCAAAGTGATAAACCGG…AGGTTGGTTTCACT; site = the 11-nt donor
# How it was run: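 The measure is log10(CPM+1) for recombinant UMIs. These were PCR-amplified across the donor–target junction and sequenced after Escherichia coli carrying a donor and donor-binding-loop pair library and a target plasmid with T7-inducible IS621 bridge recombinase was plated on IPTG (0.07 mM) plus kanamycin or unselected. CPM were averaged over two replicates and scaled by control-derived factors.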
# 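Further: IS621 bridge recombinase in Escherichia coli cells against a fixed T5 target plasmid.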
row,Sequence,recombinant UMI read abundance (log10)
1,AGGAGGACATGGACCGGTTTTCCCGGTAATCCGTATTTGAA (site AGGAAGACTTG),0
2,AGGAGGACATGGACCGGTTTTCCCGGTAATCCGTATTTGAA (site AGGAGGACTTT),2.19
3,AGGAGGACATGGACCGGTTTTCCCGGTAATCCGTATTTGCC (site AGGAAGACTTG),0
4,AGGAGGACATGGACCGGTTTTCCCGGTAATCCGTATTTGCC (site AGGAGGACTGG),1.68
5,AGGATGACATGGACCGGTTTTCCCGGTAATCCGTATTTGCG (site AGGAAGACTTG),0
6,AGGATGACATGGACCGGTTTTCCCGGTAATCCGTATTTGCG (site AGGATGACTCG),2.3
7,AGGCACGCATGGACCGGTTTTCCCGGTAATCCGTATTTGGG (site AAGCACGCTCC),0.371
8,AGGCACGCATGGACCGGTTTTCCCGGTAATCCGTATTTGGG (site ACGCACGCTCC),0.183
9,AGGCACGCATGGACCGGTTTTCCCGGTAATCCGTATTTGGG (site AGGCACGCTCC),1.76
10,AGGCACGCATGGACCGGTTTTCCCGGTAATCCGTATTTGGG (site ATGCACGCTCC),0.0107
11,AGGCACTCATGGACCGGTTTTCCCGGTAATCCGTATTTGCA (site AGGCACTCTTG),2.66
12,AGGCGAGCATGGACCGGTTTTCCCGGTAATCCGTATTTGCG (site AGGCGAGCTCG),2.02
13,AGGCGTGCATGGACCGGTTTTCCCGGTAATCCGTATTTGGA (site AGGCGTGCTTC),0.745
14,AGGCTAGCATGGACCGGTTTTCCCGGTAATCCGTATTTGTT (site AGACTAGCTAA),0.334
15,AGGCTAGCATGGACCGGTTTTCCCGGTAATCCGTATTTGTT (site AGCCTAGCTAA),0.017
16,AGGCTAGCATGGACCGGTTTTCCCGGTAATCCGTATTTGTT (site AGGCTAGCTAA),0.779
17,AGGCTAGCATGGACCGGTTTTCCCGGTAATCCGTATTTGTT (site AGTCTAGCTAA),0.0182
18,AGGCTGGCATGGACCGGTTTTCCCGGTAATCCGTATTTGTC (site AGGCTGGCTGA),0
19,AGGGAAACATGGACCGGTTTTCCCGGTAATCCGTATTTGCA (site AGGAAGACTTG),0.301

row,Sequence,recombinant UMI read abundance (log10)
1,AGGGAAACATGGACCGGTTTTCCCGGTAATCCGTATTTGCA (site AGGGAAACTTG),1.42
2,AGGGAACCATGGACCGGTTTTCCCGGTAATCCGTATTTGAT (site AGGGAACCTAT),0
3,AGGGAACCATGGACCGGTTTTCCCGGTAATCCGTATTTGAT (site CGGGAACCTAT),0
4,AGGGAACCATGGACCGGTTTTCCCGGTAATCCGTATTTGAT (site GGGGAACCTAT),0
5,AGGGAACCATGGACCGGTTTTCCCGGTAATCCGTATTTGAT (site TGGGAACCTAT),0
6,AGGGAGACATGGACCGGTTTTCCCGGTAATCCGTATTTGCC (site AGGGAGACTGG),1.26
7,AGGGAGACATGGACCGGTTTTCCCGGTAATCCGTATTTGCG (site AGGAAGACTTG),0.64
8,AGGGAGACATGGACCGGTTTTCCCGGTAATCCGTATTTGCG (site AGGGAGACTCG),1.54
9,AGGGAGCCATGGACCGGTTTTCCCGGTAATCCGTATTTGCC (site AGGGAGCCTGG),0
10,AGGGCTACATGGACCGGTTTTCCCGGTAATCCGTATTTGAC (site AGGACTACTGT),1.24
11,AGGGCTACATGGACCGGTTTTCCCGGTAATCCGTATTTGAC (site AGGCCTACTGT),0
12,AGGGCTACATGGACCGGTTTTCCCGGTAATCCGTATTTGAC (site AGGGCTACTGT),2.55
13,AGGGCTACATGGACCGGTTTTCCCGGTAATCCGTATTTGAC (site AGGTCTACTGT),1
14,AGGGTCCCATGGACCGGTTTTCCCGGTAATCCGTATTTGTC (site AGGGTCCCTGA),0.534
15,AGGTAAACATGGACCGGTTTTCCCGGTAATCCGTATTTGAG (site AGGTAAACTCT),2.07
16,AGGTAGACATGGACCGGTTTTCCCGGTAATCCGTATTTGCC (site AGGAAGACTTG),0
17,AGGTAGACATGGACCGGTTTTCCCGGTAATCCGTATTTGCC (site AGGTAGACTGG),2.79
18,AGGTAGGCATGGACCGGTTTTCCCGGTAATCCGTATTTGTT (site AGGTAGGCTAA),1.94
19,AGGTATCCATGGACCGGTTTTCCCGGTAATCCGTATTTGTC (site AGGTATCCTGA),0.494

row,Sequence,recombinant UMI read abundance (log10)
1,AGGTCAGCATGGACCGGTTTTCCCGGTAATCCGTATTTGAT (site AGGTCAGCTAT),1.84
2,AGGTCTACATGGACCGGTTTTCCCGGTAATCCGTATTTGAC (site AGGACTACTGT),0
3,AGGTCTACATGGACCGGTTTTCCCGGTAATCCGTATTTGAC (site AGGCCTACTGT),2.1
4,AGGTCTACATGGACCGGTTTTCCCGGTAATCCGTATTTGAC (site AGGGCTACTGT),0.00558
5,AGGTCTACATGGACCGGTTTTCCCGGTAATCCGTATTTGAC (site AGGTCTACTGT),1.18
6,AGGTGCCCATGGACCGGTTTTCCCGGTAATCCGTATTTGGA (site AGGTGCCCTTC),0.00688
7,AGGTGGGCATGGACCGGTTTTCCCGGTAATCCGTATTTGTG (site AGGTGGGCTCA),1.56
8,AGGTTAGCATGGACCGGTTTTCCCGGTAATCCGTATTTGAG (site AGGTTAGCTCT),1.94
9,AGGTTCCCATGGACCGGTTTTCCCGGTAATCCGTATTTGTA (site AGGTTCCCTAA),0.0166
10,AGGTTCCCATGGACCGGTTTTCCCGGTAATCCGTATTTGTA (site AGGTTCCCTCA),0.0195
11,AGGTTCCCATGGACCGGTTTTCCCGGTAATCCGTATTTGTA (site AGGTTCCCTGA),0
12,AGGTTCCCATGGACCGGTTTTCCCGGTAATCCGTATTTGTA (site AGGTTCCCTTA),1.5
13,AGGTTGCCATGGACCGGTTTTCCCGGTAATCCGTATTTGTG (site AGGTTACCTCA),0.00238
14,AGGTTGCCATGGACCGGTTTTCCCGGTAATCCGTATTTGTG (site AGGTTCCCTCA),0.00991
15,AGGTTGCCATGGACCGGTTTTCCCGGTAATCCGTATTTGTG (site AGGTTGCCTCA),0.00688
16,AGGTTGCCATGGACCGGTTTTCCCGGTAATCCGTATTTGTG (site AGGTTTCCTCA),0.00563
17,AGTAATGCATGGACCGGTTTTCCCGGTAATCCGTATTTGAG (site AGTAATGCTCT),2.15
18,AGTACACCATGGACCGGTTTTCCCGGTAATCCGTATTTGAC (site AGTACACCTGT),0
19,AGTACACCATGGACCGGTTTTCCCGGTAATCCGTATTTGAC (site CGTACACCTGT),0.0138
